Experimental data as given in the kinase profiling compilation of Christmann-Franck et al. (2016).

Experiments:
Test in all cases: KINOMEscan competition binding
Conditions in all cases: compound 10.0 µM
ACVRL1 (human) = ACVRL1 (human) (UniProt P37023)
AKT1 (human) = AKT1 (human) (UniProt P31749)
ANKK1 (human) = ANKK1 (human) (UniProt Q8NFD2)
CAMK1D (human) = CAMK1D (human) (UniProt Q8IU85)
CAMK4 (human) = CAMK4 (human) (UniProt Q16566)
CAMKK1 (human) = CAMKK1 (human) (UniProt Q8N5S9)
CDK11B (human) = CDK11B (human) (UniProt P21127)
Sequence of CDK11B (human) (P21127 whole entry, looked up): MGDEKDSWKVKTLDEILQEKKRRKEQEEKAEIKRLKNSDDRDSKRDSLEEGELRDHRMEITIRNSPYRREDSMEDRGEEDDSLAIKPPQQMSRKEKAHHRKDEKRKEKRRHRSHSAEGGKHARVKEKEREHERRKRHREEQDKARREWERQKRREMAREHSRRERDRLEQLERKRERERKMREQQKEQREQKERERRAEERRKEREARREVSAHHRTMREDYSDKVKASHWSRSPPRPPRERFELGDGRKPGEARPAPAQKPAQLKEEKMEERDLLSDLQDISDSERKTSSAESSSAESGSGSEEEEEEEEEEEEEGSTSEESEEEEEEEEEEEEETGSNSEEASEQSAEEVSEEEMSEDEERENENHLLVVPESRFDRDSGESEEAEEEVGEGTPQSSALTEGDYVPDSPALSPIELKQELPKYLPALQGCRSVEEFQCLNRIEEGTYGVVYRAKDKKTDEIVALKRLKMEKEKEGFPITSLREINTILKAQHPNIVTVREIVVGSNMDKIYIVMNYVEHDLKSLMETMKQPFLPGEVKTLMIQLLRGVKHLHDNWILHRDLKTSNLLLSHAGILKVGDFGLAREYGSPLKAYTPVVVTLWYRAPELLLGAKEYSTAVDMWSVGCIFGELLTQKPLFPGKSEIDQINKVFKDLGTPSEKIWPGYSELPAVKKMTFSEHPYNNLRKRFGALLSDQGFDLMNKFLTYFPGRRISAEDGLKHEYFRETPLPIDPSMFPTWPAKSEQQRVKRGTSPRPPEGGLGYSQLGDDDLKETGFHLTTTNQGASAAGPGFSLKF

DAPK1 (human) = DAPK1 (human) (UniProt P53355)
DCLK2 (human) = DCLK2 (human) (UniProt Q8N568)
DCLK3 (human) = DCLK3 (human) (UniProt Q9C098)
EPHA6 (human) = EPHA6 (human) (UniProt Q9UF33)
EPHB2 (human) = EPHB2 (human) (UniProt P29323)
ERBB4 (human) = ERBB4 (human) (UniProt Q15303)
FLT1 (human) = FLT1 (human) (UniProt P17948)
Sequence of FLT1 (human) (P17948 whole entry, looked up): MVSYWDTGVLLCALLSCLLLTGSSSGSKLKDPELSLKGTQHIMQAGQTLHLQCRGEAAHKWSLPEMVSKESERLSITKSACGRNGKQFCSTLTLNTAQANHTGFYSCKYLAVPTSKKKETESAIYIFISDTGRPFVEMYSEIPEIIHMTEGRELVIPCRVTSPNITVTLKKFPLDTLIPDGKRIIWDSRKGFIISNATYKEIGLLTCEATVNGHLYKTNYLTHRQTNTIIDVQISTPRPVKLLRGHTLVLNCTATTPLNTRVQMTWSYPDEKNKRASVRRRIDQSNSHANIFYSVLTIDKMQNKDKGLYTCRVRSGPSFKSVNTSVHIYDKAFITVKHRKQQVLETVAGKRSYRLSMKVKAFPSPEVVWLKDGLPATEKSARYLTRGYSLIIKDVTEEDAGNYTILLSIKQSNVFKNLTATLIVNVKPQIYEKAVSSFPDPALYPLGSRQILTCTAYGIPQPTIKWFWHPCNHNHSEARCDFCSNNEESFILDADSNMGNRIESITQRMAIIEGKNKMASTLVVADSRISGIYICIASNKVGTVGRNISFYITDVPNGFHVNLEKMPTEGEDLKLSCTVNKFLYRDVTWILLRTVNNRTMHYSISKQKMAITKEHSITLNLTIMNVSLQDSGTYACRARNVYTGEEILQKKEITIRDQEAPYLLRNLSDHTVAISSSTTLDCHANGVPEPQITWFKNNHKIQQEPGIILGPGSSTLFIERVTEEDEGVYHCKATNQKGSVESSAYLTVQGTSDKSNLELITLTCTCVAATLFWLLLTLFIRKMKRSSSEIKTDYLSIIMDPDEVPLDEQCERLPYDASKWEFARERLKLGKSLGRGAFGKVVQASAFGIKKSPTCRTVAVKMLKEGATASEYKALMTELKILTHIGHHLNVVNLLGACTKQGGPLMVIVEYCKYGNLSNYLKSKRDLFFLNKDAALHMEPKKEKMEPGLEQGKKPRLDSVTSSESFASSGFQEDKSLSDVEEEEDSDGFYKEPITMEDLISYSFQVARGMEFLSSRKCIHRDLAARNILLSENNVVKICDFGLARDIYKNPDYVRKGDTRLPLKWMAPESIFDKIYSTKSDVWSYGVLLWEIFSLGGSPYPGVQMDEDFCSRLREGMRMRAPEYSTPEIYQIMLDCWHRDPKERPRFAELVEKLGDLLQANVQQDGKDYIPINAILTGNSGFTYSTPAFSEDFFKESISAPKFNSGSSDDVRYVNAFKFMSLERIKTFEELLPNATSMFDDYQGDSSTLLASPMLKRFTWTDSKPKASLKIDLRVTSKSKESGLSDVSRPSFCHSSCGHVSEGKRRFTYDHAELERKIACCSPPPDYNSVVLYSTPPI

[1] = system: KIT (human), P10721 [D816V]
LATS2 (human) = LATS2 (human) (UniProt Q9NRM7)
LYN (human) = LYN (human) (UniProt P07948)
MAP3K12 (human) = MAP3K12 (human) (UniProt Q12852)
MAP4K2 (human) = MAP4K2 (human) (UniProt Q12851)
Sequence of MAP4K2 (human) (Q12851 whole entry, looked up): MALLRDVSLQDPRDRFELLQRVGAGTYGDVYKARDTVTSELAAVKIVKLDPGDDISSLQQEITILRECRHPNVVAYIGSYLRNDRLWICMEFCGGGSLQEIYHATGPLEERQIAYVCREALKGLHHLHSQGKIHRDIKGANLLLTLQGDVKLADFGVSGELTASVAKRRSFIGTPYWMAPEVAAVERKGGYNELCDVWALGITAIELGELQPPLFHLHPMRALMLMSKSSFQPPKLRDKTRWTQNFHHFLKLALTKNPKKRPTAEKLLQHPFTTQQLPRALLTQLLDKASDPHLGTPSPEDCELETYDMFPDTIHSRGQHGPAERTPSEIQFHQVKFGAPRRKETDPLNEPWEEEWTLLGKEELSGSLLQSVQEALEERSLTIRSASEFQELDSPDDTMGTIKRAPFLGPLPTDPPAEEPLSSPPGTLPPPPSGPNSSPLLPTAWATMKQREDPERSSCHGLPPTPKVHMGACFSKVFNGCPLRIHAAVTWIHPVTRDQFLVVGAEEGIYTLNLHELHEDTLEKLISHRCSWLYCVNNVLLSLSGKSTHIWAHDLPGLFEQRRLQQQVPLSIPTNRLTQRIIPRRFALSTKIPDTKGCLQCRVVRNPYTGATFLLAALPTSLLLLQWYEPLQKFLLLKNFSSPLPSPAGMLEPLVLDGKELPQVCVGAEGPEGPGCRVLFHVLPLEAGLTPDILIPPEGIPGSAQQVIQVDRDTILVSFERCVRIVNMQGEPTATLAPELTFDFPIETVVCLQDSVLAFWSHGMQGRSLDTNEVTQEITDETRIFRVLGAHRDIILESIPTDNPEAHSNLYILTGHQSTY

MAPK15 (human) = MAPK15 (human) (UniProt Q8TD08)
MAPKAPK2 (human) = MAPKAPK2 (human) (UniProt P49137)
MAPKAPK5 (human) = MAPKAPK5 (human) (UniProt Q8IW41)
MYLK4 (human) = MYLK4 (human) (UniProt Q86YV6)
Sequence of MYLK4 (human) (Q86YV6 whole entry, looked up): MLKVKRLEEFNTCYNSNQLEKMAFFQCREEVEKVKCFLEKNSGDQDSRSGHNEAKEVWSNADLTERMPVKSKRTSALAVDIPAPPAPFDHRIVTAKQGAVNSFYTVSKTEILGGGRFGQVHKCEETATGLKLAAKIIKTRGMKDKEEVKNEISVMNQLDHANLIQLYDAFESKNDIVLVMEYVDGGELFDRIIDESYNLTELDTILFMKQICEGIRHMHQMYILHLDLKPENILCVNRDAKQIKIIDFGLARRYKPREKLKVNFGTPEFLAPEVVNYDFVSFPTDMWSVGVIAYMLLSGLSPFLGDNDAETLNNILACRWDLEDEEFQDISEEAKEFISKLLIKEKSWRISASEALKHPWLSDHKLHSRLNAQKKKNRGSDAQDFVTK

NEK2 (human) = NEK2 (human) (UniProt P51955)
Sequence of NEK2 (human) (P51955 whole entry, looked up): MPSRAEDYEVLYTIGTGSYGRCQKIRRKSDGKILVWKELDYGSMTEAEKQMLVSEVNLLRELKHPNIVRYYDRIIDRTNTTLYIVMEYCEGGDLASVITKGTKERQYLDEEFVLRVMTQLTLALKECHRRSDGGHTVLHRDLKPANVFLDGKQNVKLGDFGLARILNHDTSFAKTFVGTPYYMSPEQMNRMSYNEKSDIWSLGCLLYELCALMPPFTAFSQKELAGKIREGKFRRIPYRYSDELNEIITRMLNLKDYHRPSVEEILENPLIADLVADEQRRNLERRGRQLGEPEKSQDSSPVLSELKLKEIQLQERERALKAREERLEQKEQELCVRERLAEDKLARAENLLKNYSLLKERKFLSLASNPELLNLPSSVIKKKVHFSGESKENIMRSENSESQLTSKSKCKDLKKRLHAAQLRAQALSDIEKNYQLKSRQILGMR

NTRK2 (human) = NTRK2 (human) (UniProt Q16620)
NUAK1 (human) = NUAK1 (human) (UniProt O60285)
PHKG1 (human) = PHKG1 (human) (UniProt Q16816)
PIM3 (human) = PIM3 (human) (UniProt Q86V86)
PRKCE (human) = PRKCE (human) (UniProt Q02156)
PRKG1 (human) = PRKG1 (human) (UniProt Q13976)
PRKG2 (human) = PRKG2 (human) (UniProt Q13237)
RET (human) = RET (human) (UniProt P07949)
Sequence of RET (human) (P07949 whole entry, looked up): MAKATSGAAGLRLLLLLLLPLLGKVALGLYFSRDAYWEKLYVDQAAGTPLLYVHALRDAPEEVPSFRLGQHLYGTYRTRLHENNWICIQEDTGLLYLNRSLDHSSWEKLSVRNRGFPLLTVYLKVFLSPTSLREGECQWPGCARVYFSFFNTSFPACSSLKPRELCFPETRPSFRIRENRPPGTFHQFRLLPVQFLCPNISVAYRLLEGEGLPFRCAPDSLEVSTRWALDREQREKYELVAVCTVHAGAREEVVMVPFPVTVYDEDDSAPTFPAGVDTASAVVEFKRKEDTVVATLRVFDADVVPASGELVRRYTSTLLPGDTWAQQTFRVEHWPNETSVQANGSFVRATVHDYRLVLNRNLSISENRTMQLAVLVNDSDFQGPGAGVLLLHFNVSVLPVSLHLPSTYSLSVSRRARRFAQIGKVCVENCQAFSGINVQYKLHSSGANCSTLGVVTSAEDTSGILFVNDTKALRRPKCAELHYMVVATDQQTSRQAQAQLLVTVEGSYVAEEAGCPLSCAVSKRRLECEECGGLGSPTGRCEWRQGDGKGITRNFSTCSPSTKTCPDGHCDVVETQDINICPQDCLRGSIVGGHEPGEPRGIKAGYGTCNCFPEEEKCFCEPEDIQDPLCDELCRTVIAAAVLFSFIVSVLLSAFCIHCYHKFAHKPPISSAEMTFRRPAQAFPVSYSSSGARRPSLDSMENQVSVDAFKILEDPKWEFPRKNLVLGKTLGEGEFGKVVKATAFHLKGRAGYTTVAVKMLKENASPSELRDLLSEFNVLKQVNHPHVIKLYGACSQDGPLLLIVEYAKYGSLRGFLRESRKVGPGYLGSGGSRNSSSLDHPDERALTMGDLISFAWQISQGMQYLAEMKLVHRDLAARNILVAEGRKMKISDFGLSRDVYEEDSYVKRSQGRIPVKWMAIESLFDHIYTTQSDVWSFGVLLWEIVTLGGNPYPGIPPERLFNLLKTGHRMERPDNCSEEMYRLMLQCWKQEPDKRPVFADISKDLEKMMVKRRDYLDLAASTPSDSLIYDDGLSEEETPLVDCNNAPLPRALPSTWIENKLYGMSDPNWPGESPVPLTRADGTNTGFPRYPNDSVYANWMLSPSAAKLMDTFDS

RIPK4 (human) = RIPK4 (human) (UniProt P57078)
RPS6KA2 KD1 (human) = RPS6KA2 KD1 (human) (UniProt Q15349)
RPS6KA5 KD2 (human) = RPS6KA5 KD2 (human) (UniProt O75582)
RPS6KA6 KD2 (human) = RPS6KA6 KD2 (human) (UniProt Q9UK32)
STK10 (human) = STK10 (human) (UniProt O94804)
TEK (human) = TEK (human) (UniProt Q02763)
ULK3 (human) = ULK3 (human) (UniProt Q6PHR2)
WEE1 (human) = WEE1 (human) (UniProt P30291)

SMILES: C=CC(=O)Nc1cccc(Nc2nc(N[C@H]3CC[C@H](N(C)C)CC3)nc3c2ncn3C(C)C)c1
- kinase still bound, per cent of control (ACVRL1 (human)): 100%
- kinase still bound, per cent of control (AKT1 (human)): 93%
- kinase still bound, per cent of control (ANKK1 (human)): 62%
- kinase still bound, per cent of control (CAMK1D (human)): 67%
- kinase still bound, per cent of control (CAMK4 (human)): 100%
- kinase still bound, per cent of control (CAMKK1 (human)): 40%
- kinase still bound, per cent of control (CDK11B (human)): 100%
- kinase still bound, per cent of control (DAPK1 (human)): 29%
- kinase still bound, per cent of control (DCLK2 (human)): 89%
- kinase still bound, per cent of control (DCLK3 (human)): 86%
- kinase still bound, per cent of control (EPHA6 (human)): 73%
- kinase still bound, per cent of control (EPHB2 (human)): 87%
- kinase still bound, per cent of control (ERBB4 (human)): 76%
- kinase still bound, per cent of control (FLT1 (human)): 100%
- kinase still bound, per cent of control [1]: 10%
- kinase still bound, per cent of control (LATS2 (human)): 70%
- kinase still bound, per cent of control (LYN (human)): 50%
- kinase still bound, per cent of control (MAP3K12 (human)): 71%
- kinase still bound, per cent of control (MAP4K2 (human)): 31%
- kinase still bound, per cent of control (MAPK15 (human)): 75%
- kinase still bound, per cent of control (MAPKAPK2 (human)): 100%
- kinase still bound, per cent of control (MAPKAPK5 (human)): 87%
- kinase still bound, per cent of control (MYLK4 (human)): 88%
- kinase still bound, per cent of control (NEK2 (human)): 94%
- kinase still bound, per cent of control (NTRK2 (human)): 5.3%
- kinase still bound, per cent of control (NUAK1 (human)): 93%
- kinase still bound, per cent of control (PHKG1 (human)): 57%
- kinase still bound, per cent of control (PIM3 (human)): 75%
- kinase still bound, per cent of control (PRKCE (human)): 52%
- kinase still bound, per cent of control (PRKG1 (human)): 100%
- kinase still bound, per cent of control (PRKG2 (human)): 96%
- kinase still bound, per cent of control (RET (human)): 73%
- kinase still bound, per cent of control (RIPK4 (human)): 72%
- kinase still bound, per cent of control (RPS6KA2 KD1 (human)): 4.4%
- kinase still bound, per cent of control (RPS6KA5 KD2 (human)): 95%
- kinase still bound, per cent of control (RPS6KA6 KD2 (human)): 100%
- kinase still bound, per cent of control (STK10 (human)): 72%
- kinase still bound, per cent of control (TEK (human)): 95%
- kinase still bound, per cent of control (ULK3 (human)): 52%
- kinase still bound, per cent of control (WEE1 (human)): 51%

SMILES: Cn1c(=O)n(-c2ccc(C(C)(C)C#N)cc2)c2c3cc(-c4cnc5ccccc5c4)ccc3ncc21
- kinase still bound, per cent of control (ACVRL1 (human)): 100%
- kinase still bound, per cent of control (AKT1 (human)): 100%
- kinase still bound, per cent of control (ANKK1 (human)): 100%
- kinase still bound, per cent of control (CAMK1D (human)): 100%
- kinase still bound, per cent of control (CAMK4 (human)): 100%
- kinase still bound, per cent of control (CAMKK1 (human)): 100%
- kinase still bound, per cent of control (CDK11B (human)): 100%
- kinase still bound, per cent of control (DAPK1 (human)): 100%
- kinase still bound, per cent of control (DCLK2 (human)): 100%
- kinase still bound, per cent of control (DCLK3 (human)): 100%
- kinase still bound, per cent of control (EPHA6 (human)): 100%
- kinase still bound, per cent of control (EPHB2 (human)): 100%
- kinase still bound, per cent of control (ERBB4 (human)): 100%
- kinase still bound, per cent of control (FLT1 (human)): 100%
- kinase still bound, per cent of control [1]: 100%
- kinase still bound, per cent of control (LATS2 (human)): 100%
- kinase still bound, per cent of control (LYN (human)): 100%
- kinase still bound, per cent of control (MAP3K12 (human)): 100%
- kinase still bound, per cent of control (MAP4K2 (human)): 11%
- kinase still bound, per cent of control (MAPK15 (human)): 100%
- kinase still bound, per cent of control (MAPKAPK2 (human)): 100%
- kinase still bound, per cent of control (MAPKAPK5 (human)): 100%
- kinase still bound, per cent of control (MYLK4 (human)): 100%
- kinase still bound, per cent of control (NEK2 (human)): 100%
- kinase still bound, per cent of control (NTRK2 (human)): 100%
- kinase still bound, per cent of control (NUAK1 (human)): 30%
- kinase still bound, per cent of control (PHKG1 (human)): 100%
- kinase still bound, per cent of control (PIM3 (human)): 100%
- kinase still bound, per cent of control (PRKCE (human)): 100%
- kinase still bound, per cent of control (PRKG1 (human)): 100%
- kinase still bound, per cent of control (PRKG2 (human)): 100%
- kinase still bound, per cent of control (RET (human)): 100%
- kinase still bound, per cent of control (RIPK4 (human)): 100%
- kinase still bound, per cent of control (RPS6KA2 KD1 (human)): 100%
- kinase still bound, per cent of control (RPS6KA5 KD2 (human)): 100%
- kinase still bound, per cent of control (RPS6KA6 KD2 (human)): 100%
- kinase still bound, per cent of control (STK10 (human)): 100%
- kinase still bound, per cent of control (TEK (human)): 100%
- kinase still bound, per cent of control (ULK3 (human)): 100%
- kinase still bound, per cent of control (WEE1 (human)): 100%
